The values below come from patent US20150079029A1, “METHODS AND COMPOSITIONS FOR INHIBITING ANGIOGENESIS” (Oncology Research International Limited, priority 2006, published 2015).

Assay [1] has as its system angiogenesis induced by bFGF in angiochambers. Put plainly: AngioChamber assay: bFGF-induced fibrous capsule formation and haemoglobin (Drabkin) blood content. The settings on record: i.p. once daily for 5 days, dioscin 10, deltonin 10, trillin 60, prosapogenin A 20, sorafenib 60 mg/kg. Type of assay: in vivo, FvB mice. From the text:
The AngioChamber™ assay utilises the normal physiological process of wound healing, which promotes the formation of a fibrous capsule around an implanted chamber (Wood et al, (2000) Cancer Research, 60(8):2178-89). The inclusion of bFGF in the chamber induces blood vessel development in the fibrous capsule. The assay therefore assesses the efficacy of treatments by gauging their effect both on the fibrous capsule formation, measured by the wet weight of the capsule at the termination of the study and by determination of blood vessel supply to the chamber by assaying for haemoglobin content. The haemoglobin content of the fibrous capsule is a measure of neovascularisation, which is assayed by the Drabkin Assay.
The angiochambers were porous tissue chambers made of perfluoro-alkoxy-Teflon and filled with 0.8% agar containing 20 IU/mL heparin, with or without 1 μg/mL human bFGF. Both ends of the chamber were sealed with removable caps of the same material. The chambers were filled under sterile conditions with 0.8% agar containing 20 IU/mL heparin, with or without 1 μg/mL human bFGF. The agarose solution was maintained at 37° C. prior to filling the chambers.
70 female FvB mice were microchipped, weighed and randomised based on body weight into 7 groups with 10 mice per group. For implantation, the mice were anaesthetised by halothane inhalation. Approximately 150 μL sterile filtered air was injected subcutaneously in the back of each mouse, between the shoulder blades, resulting in an air pocket in which a small incision was made and the chamber inserted. The wound was closed with two 1.4 mm wound clips.
The treatments, which were all formulated in NMP:PEG300:Water (1:9:10, v/v) and administered daily by intraperitoneal injection, were as given in the Table 7:
Treatment was started when all the animals had recovered fully from anaesthesia, and continued for 5 days. On Day 6, the vascularised fibrous chambers were removed and the wet weight recorded for each implant. The chamber from each mouse was then snap frozen with liquid nitrogen and stored at −20° C. until assessed for haemoglobin content.
The fibrous capsule samples were thawed and kept on ice during the procedure. Sterile water was added to each thawed sample, and the sample homogenised with an UltraTourax at high speed. To avoid cross-contamination, the UltraTourax was flushed for 30 seconds with 5 mL distilled water after homogenising each sample. The homogenate was transferred into 2 mL Eppendorf tubes and stored on ice. The Eppendorf tubes were centrifuged at 4° C. and high speed (14,000 relative centrifugal force (RCF)) for 60 min. 1.0-1.5 mL of the intermediate aqueous solution (homogenate), between the pellet and the fat layer, was then transferred to fresh labelled 1.5 mL Eppendorf tubes and stored on ice. 50 μL of each homogenate was transferred into separate wells of a 96-well plate. 50 μL of water was transferred into 2 wells as blanks. 50 μL of Drabkin's reagent was then added to each well and mixed. After 15 min incubation at room temperature, the absorbance of each sample at 540 nm was measured and the volume of blood for each sample calculated from a standard curve.
The Percent Induction for a treatment is the difference in blood content between the treatment (+bFGF) and the vehicle alone (no bFGF), divided by the difference in blood content between the vehicle with bFGF and the vehicle alone (no bFGF), expressed as a percentage.

For assay [2], the system named is angiogenesis induced by bFGF in angiosponges. Kind of assay: AngioSponge assay: bFGF-induced neovascularisation of implanted gelfoam, CD31 staining. Type of assay: in vivo, C3H/Hej mice. The settings on record: i.p. once daily for 10 days, dioscin 10, deltonin 10, trillin 60, prosapogenin A 20, sorafenib 60 mg/kg. The source says: The AngioSponge™ assay enables slow release of agarose-captured growth factor, which stimulates endothelial cell proliferation and migration, and provides a tissue-like matrix for neovascularisation. The assay can be therefore be used to gauge the efficacy of treatments designed to inhibit angiogenesis, determined by counting blood vessels after CD31 immunohistochemical staining of endothelial cells (McCarty et al, International Journal of Oncology, 21:5-10, 2002).
Gelfoams (Pharmacia & Upjohn) were cut into approximately 7×7×7 mm pieces, under sterile conditions, and pre-soaked over night with sterile phosphate buffered saline. The hydrated gelfoams were then partially dried. Growth factor (bFGF) was diluted to an initial concentration of 2 μg/mL in warm (37° C.) 0.4% agarose. The partially dried gelfoams were placed in the growth factor solution, or in warm 0.4% agarose without growth factor, and then transferred to a Petri dish containing warm 0.4% agarose (1:1 dilution, final growth factor concentration 1 μg/mL) for polymerisation and solidification.
70 female C3H/Hej mice were microchipped, weighed and randomised based on body weight into 7 groups with 10 mice per group. For implantation, the mice were anaesthetised by halothane inhalation. A small channel forged with a trocar needle between the 3rd and 4th mammary gland, the sponge was inserted to the full depth of the channel and the incision closed with a wound clip.
The compounds were formulated in N-methylpyrrolidone (NMP):PEG300:Water (1:9:10, v/v). Dosing was established on the basis of in vitro IC50 data and preliminary toxicity studies. Compounds were administered daily by intraperitoneal injection, at a dosing volume of 10 mL/kg, once daily for the study period as shown in Table 5.
Treatment was started when all the animals had recovered fully from anaesthesia, and continued for 10 days. On Day 11, the angiosponges were excised and snap frozen in liquid nitrogen with OCT for CD31 staining on frozen sections.
CD31/PECAM-1 is an antigen present specifically on endothelial cells and can therefore be used as a marker for blood vessels. Frozen samples of the sponge were cryo-sectioned (12 μm), mounted on positively-charged Plus slides (Fisher Scientific), and air-dried for 30 minutes. Frozen sections were in turn fixed in cold acetone, acetone/chloroform (1:1, v/v), and acetone for 5 min each, and then washed with PBS (phosphate buffer saline). After blocking with PBS containing 5% normal horse serum and 1% normal goat serum, sections were incubated with PECAM-1 monoclonal rat anti-mouse CD31 antibody (1:5000 in blocking solution, PharMingen, San Diego, Calif.) for 4 hours at room temperature. The slides were then washed three times with PBS and incubated with adequate secondary anti-rat antibody. Positive reactions were visualized by incubating the slides in stable 3,3′-diaminobenzidine for 5-10 min. The sections were rinsed with distilled water, counter-stained with Gill's haematoxylin for 1 min, and mounted with Universal Mount (Research Genetics). […] Mouse placenta was used as a positive control. For quantification, 3 independent visual fields were chosen and positive stained spots or vessels with lumen were counted.
The Percent Induction for a treatment is the difference in CD31 counts between the treatment (+bFGF) and the vehicle alone (no bFGF), divided by the difference in CD31 counts between the vehicle with bFGF and the vehicle alone (no bFGF), expressed as a percentage.

Consider `C[C@@H]1CC[C@@]2(OC1)O[C@H]1C[C@H]3[C@@H]4CC=C5C[C@@H](O[C@@H]6O[C@H](CO)[C@@H](O[C@@H]7O[C@H](CO)[C@@H](O)[C@H](O)[C@H]7O)[C@H](O)[C@H]6O[C@@H]6O[C@@H](C)[C@H](O)[C@@H](O)[C@H]6O)CC[C@]5(C)[C@H]4CC[C@]3(C)[C@H]1[C@@H]2C` [Deltonin, diosgenin Rha2, [Glc4], Glc], for which the “Percent Induction (blood content relative to vehicle + bFGF minus vehicle alone)” value in assay [1] is 20%. Moreover, the “Average blood content (from haemoglobin content)” value in assay [1] (Drabkin assay) was 0.79 µL. The molecule also showed an Average chamber weight in assay [1] (wet weight on Day 6) of 0.126 g. Also, the “Percent Induction (CD31 counts relative to vehicle + bFGF minus vehicle alone)” value in assay [2] worked out at 61%. Moreover, the “Average number of blood vessels (CD31 counts)” value in assay [2] (sponges excised Day 11) was 44.
